# Entries after “also recorded” stand apart in the source; their conditions may differ.
# Columns and labels:
# [1] = from [2H]C([2H])([2H])N(CC(=O)OC1(CCC=C)CCOC1)/C(=N\C(=O)OCc1ccccc1)NC(=O)CCCCCC=C; rcm bond; 17-membered ring; Grubbs II (10 mol%); DCM; 1.95 mM; 50.0 °C; 2.0 h
# [2] = In vivo IV dosing in CrT KO mice: prodrug, d3-Cr and d3-Crn in brain (Table 5); conditions: for AUClast prodrug in the brain: BQL prodrug = 41.2 ng/mL
# Method: A creatine prodrug is administered as an intravenous bolus injection to groups of three to six adult male CD1 mice at an appropriate creatine prodrug dose equivalent per kg body weight. Animals are conscious at the time of the experiment. Blood samples (0.3 mL) are obtained via a jugular vein cannula at intervals over 8 hours following IV dosing. Blood is processed into plasma, then the plasmais immediately frozen at −80° C. until analyzed by LC-MS/MS. Samples may also be taken form the CSF or other appropriate biological fluid. Brains were collected and flash frozen immediately in liquid nitrogen. Brains were homogenized in 100 mM KPI buffer with a cocktail of anti-proteases on the same day as the sample preparation required for LC-MS/MS analysis.
# Several prodrugs with either free COOH group and ester linkage and macrocycles were selected for IV dosing in animal study to assess PK and d3-Cr release in brain in vivo. Prodrugs were IV dosed in CrT KO mice at 10, 15, or 25 mg/kg in animal studies. Mouse brain homogenates (MBH) were prepared from brains collected from mice after dosing. Levels of prodrug, d3-Cr and d3-Crn were quantified in brain and expressed in brain concentration (for macrocycle prodrugs) or AUC (for linear prodrugs) over time. Very few prodrugs were detected in MBH.
# [3] = Chemical stability in simulated gastric fluid (SGF) without pepsin; assay type: physicochemical; conditions: Table 2A, 50 μM prodrug
# How it was run: (§1)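 Incubations used 50 μM compound at 37 °C in phosphate buffered saline, fasted simulated intestinal fluid without pancreatin, or fasted simulated gastric fluid without pepsin.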
# ARPE-19 cells = experiment: Creatine prodrug uptake and d3-creatine release in ARPE-19 cells (Table 4A); assay type: cell-based, human; conditions: 50 μM, 6 h, cytosol fraction, corrected for total protein
# Method: At the end of the incubation, supernatant will be collected from each well to assess prodrug recovery. Cells are then washed 3× with PBS. Plates, prodrugs in supernatant, prodrugs in serum-free medium are stored at −80° C. until harvest (within 5 days). On the day of extraction, 130 uL of lysis buffer (10 mM Tris pH 7.4) with EDTA-free protease inhibitors is added to each well and cells are removed using a cell scraper. Lysates are further homogenized using a handheld pestle and then centrifuged at 16,000 g, […], for 10 minutes to collect cytosol fraction. Pellets will be stored at −80° C. until further analysis. A 4× volume of stop solution (80% ACN/20% water) will be added to the cytosol fraction, supernatant and medium. Samples will be centrifuged at 15,890 g (13,000 rpm) at 4° C. for 10 mins. Supernatant will be collected and stored at −80° C. within 5 days prior to LC-MS/MS analysis. Dosing solutions for each prodrug (10 μM) will be assayed to verify concentration. Cells alone with vehicle will serve as controls to assess background signal for LC-MS/MS. Two independent runs of experiment will be conducted.
# Nine fatty acid amide creatine prodrugs were tested in human ARPE-19 cells to assess prodrug uptake and d3-Cr release inside the cells. 50 μM of prodrug was incubated in culture medium with the cells and the cells were harvested at 6 h. Quantitation of prodrugs, d3-Cr (d3-creatine) and d3-Cm (d3-creatinine) in the cytosol fraction was corrected for total protein concentration.
# [4] = Liver microsome stability, mouse; assay type: in vitro ADME; conditions: liver microsomes, pH 7.4, Table 2A, read-out: Microsome Stability Mouse t1/2
# How it was run: (§2)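 Test compound incubated with mouse or human liver microsomes and NADPH in 0.1 M potassium phosphate, 1.0 mM EDTA, pH 7.4, with a 60-min no-NADPH control. Samples quenched with ACN containing internal standard at 0, 5, 10, 20, 30 and 60 min, then analysed by LC/MS.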
# [5] = Chemical stability in phosphate buffered saline (PBS); assay type: physicochemical; conditions: Table 2A, 50 μM prodrug
# How it was run: as §1
# [6] = Plasma stability, mouse plasma; assay type: in vitro ADME; conditions: Table 2A, 37 °C, read-out: Plasma Stability Mouse t1/2
# How it was run: (§3)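 Test article, 1 µM final (from 10% DMSO/water), incubated at 37 °C in plasma adjusted to pH 7.4 if needed; samples at 0, 2, 5, 15 and 30 min quenched with ice-cold 80% acetonitrile. Remaining compound by LC-MS/MS; half-life in minutes calculated.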
# [7] = Plasma stability, human plasma; assay type: in vitro ADME; conditions: Table 2A, 37 °C, read-out: Plasma Stability Human t1/2
# How it was run: as §3
# [8] = Liver microsome stability, human; assay type: in vitro ADME; conditions: liver microsomes, pH 7.4, Table 2A, read-out: Microsome Stability Human t1/2
# How it was run: as §2
# [9] = Prodrug cleavage in human brain homogenates (HBH): d3-Cr release and d3-Crn cyclization; assay type: in vitro ADME; conditions: for Prodrug Cleavage Human BH d3-Crn release / Prodrug Cleavage Human BH net d3-Cr release: 200 μM prodrug, 3 h, % of nominal input; for Prodrug Cleavage Human BH net d3-Cr release: negative control subtracted
# Method: (§4) For assessment of the ability of prodrugs to release creatine, and to release creatine preferentially to unwanted cyclization to creatinine, d3-labeled (deuterium labeled methyl group) prodrugs are incubated with brain homogenates (e.g., mouse, human) specially prepared to preserve FAAH activity or with rFAAH for direct cleavage study. The use of d3-labelled prodrugs is essential in order to distinguish prodrug-derived creatine (d3-creatine) from high concentrations of endogenous (non-labeled) creatine. […] Prodrugs are tested at final concentrations of 20 μM and 200 μM. Approximately 3-4 mg of homogenate is used for each reaction. Co-factor (NADPH) is included at a final concentration of 1 mM. FAAH activity is confirmed by conversion of 7-amino-4-methyl Coumarin-Arachidonamide to 7-amino-4-methyl Coumarin by fluorescent assay. Negative controls include incubations without brain homogenate/rFAAH (but with NADPH) or 65° C. heat inactivated brain homogenate/rFAAH to assess non-enzymatic prodrug cleavage under the conditions of the assay and FAAH inhibitor […] at the concentration of 1 μM. Prodrug incubations are prepared by addition of 8 μL of prodrug stock solution (500 or 5000 μM in DMSO or DMSO/methanol) to assay buffered, followed by addition of brain homogenate/rFAAH. […] The samples are centrifuged at 15890×g for 10 minutes at 4° C., followed by transfer of the supernatants for storage at −20° C. pending LC-MS/MS analysis. Sample supernatants are analyzed by LC-MS/MS for determination of d3-prodrug, d3-creatine and d3-creatinine levels.
# (§5) Deuterated creatine prodrugs were tested in 3 different in vitro assays to assess d3-creatine (d3-Cr) release and cyclization to form d3-creatinine (d3-Crn). These assays were 1) direct cleavage with recombinant human FAAH enzyme (rFAAH), 2) cleavage in mouse brain homogenates (MBH), and 3) human brain homogenates (HBH).
# (§6) Creatine prodrug cleavage efficiency was determined by percentage of net d3-Cr release in μM (positive reaction subtracted from negative control of no brain homogenate/rFAAH or inactivated brain homogenate/rFAAH) over nominal input concentration of 200 μM prodrug at 3 h. Propensity for creatinine cyclization was determined by percentage of d3-Crn generated in μM in positive reaction over nominal input concentration of 200 μM prodrug at 3 h.
# [10] = target: T1, recombinant human FAAH enzyme (rFAAH) (Homo sapiens, UniProt O00519); experiment: Direct prodrug cleavage with recombinant human FAAH enzyme (rFAAH): d3-Cr release and d3-Crn cyclization; assay type: biochemical; conditions: 200 μM prodrug, 3 h; result in words
# T1 sequence (O00519 1-579): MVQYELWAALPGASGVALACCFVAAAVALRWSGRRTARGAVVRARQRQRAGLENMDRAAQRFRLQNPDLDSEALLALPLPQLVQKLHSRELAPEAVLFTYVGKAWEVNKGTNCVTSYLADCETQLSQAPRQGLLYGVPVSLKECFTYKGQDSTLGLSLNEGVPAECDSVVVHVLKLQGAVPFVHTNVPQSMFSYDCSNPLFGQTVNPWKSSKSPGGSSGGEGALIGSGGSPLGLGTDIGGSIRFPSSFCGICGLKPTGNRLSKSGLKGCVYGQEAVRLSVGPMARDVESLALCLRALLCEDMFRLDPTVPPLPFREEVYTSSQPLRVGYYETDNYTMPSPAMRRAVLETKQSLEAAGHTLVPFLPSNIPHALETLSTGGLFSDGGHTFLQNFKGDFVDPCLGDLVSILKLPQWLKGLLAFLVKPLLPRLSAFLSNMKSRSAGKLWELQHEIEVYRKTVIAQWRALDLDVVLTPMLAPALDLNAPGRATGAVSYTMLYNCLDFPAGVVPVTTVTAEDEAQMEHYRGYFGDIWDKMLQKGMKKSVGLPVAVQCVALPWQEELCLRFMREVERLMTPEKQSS
# Method: as §4, §5, §6
# [11] = IV 10 mg/kg, CrT KO mouse brain
# [12] = in vitro cleavage assays (Table 3A)
"AUClast prodrug in the brain [2, 11]","Chemical Stability SGF, no enzyme % T0 at 2 hours at 37 °C. [3] [%]","prodrug, Cellular Uptake (ARPE-19 cells)",half-life at 10 μM [4] [h],Chemical Stability PBS % T0 at 2 hours at 37 °C. [5] [%],half-life [6] [h],half-life [7] [h],half-life at 10 μM [8] [h],Structure (SMILES),further results
–,–,–,–,–,–,–,–,[2H]C([2H])([2H])N1CC(=O)OC2(CC/C=C/CCCCCC(=O)N/C1=N/C(=O)OCc1ccccc1)CCOC2 (stereo not shown),"ring closure, isolated yield [1]: 78%"
BQL,73,BQL,< 0.0833,23,< 0.0833,0.0833,< 0.0833,"Cl.[2H]C([2H])([2H])N(CC(=O)OCCCCCCC)C(=N)NC(=O)CCCCCCCCCC [Compound 5, Heptyl N-(methyl-d3)-N—(N-undecanoylcarbamimidoyl)glycinate Hydrochloride]",–
BQL,–,–,–,–,–,–,–,[2H]C([2H])([2H])N(CC(=O)OC(C)C)C(=N)NC(=O)CCCCCCCCCC [Compound 12],–
–,117,–,–,99,–,–,–,Cl.[2H]C([2H])([2H])N(CC(=O)OC(C)C)C(=N)NC(=O)CCCCCCCCCC [Compound 12-HCl],"d3-Cr/d3-Crn release ratio in vivo (in words) ([2]; brain, CrT KO mice): favorable d3-Cr/d3-Crn ratio; Prodrug Cleavage Human BH d3-Crn release [9]: 265.7%; Prodrug Cleavage Human BH net d3-Cr release [9]: 2.9%; d3-Cr release in vitro (in words) [9, 12]: small amount of d3-Cr; d3-Crn (creatinine) cyclization in vitro (in words) [9, 12]: predominantly cyclized into creatinine; also recorded: predominantly creatinine cyclization"
–,103,–,–,62,–,–,–,Cl.[2H]C([2H])([2H])N(CC(=O)OCC(C)(C)C)C(=N)NC(=O)CCCCCCCCCC [Compound 39],Prodrug Cleavage Human BH d3-Crn release [9]: 166.5%; Prodrug Cleavage Human BH net d3-Cr release [9]: 6.4%
–,78,BQL,> 2.42,101,> 3,> 3,> 2.42,[2H]C([2H])([2H])N(CC(=O)[O-])C(=N)NC(=O)c1cccnc1.[Na+] [Compound 20],"d3-Cr, Cellular Uptake (ARPE-19 cells): BQL; d3-Crn, Cellular Uptake (ARPE-19 cells): BQL"
–,62,29.2 nmol/mg protien,> 2.42,145,2.7,> 3,1.57,[2H]C([2H])([2H])N(CC(=O)O)C(=N)NC(=O)CCCCCCCCCCC [Compound 30],–
–,102,BQL,–,54,–,–,–,Cl.[2H]C([2H])([2H])N(CC(=O)OC(C)C)C(=N)NC(=O)CCCCCCC/C=C\CCCCCCCC [Compound 45],"Prodrug Cleavage Human BH d3-Crn release [9]: 22.0%; Prodrug Cleavage Human BH net d3-Cr release [9]: 0.4%; d3-Cr, Cellular Uptake (ARPE-19 cells): 0.74 nmol/mg protien; d3-Crn, Cellular Uptake (ARPE-19 cells): 1.03 nmol/mg protien; Prodrug Cleavage rFAAH d3-Crn release (yes/no) [10]: yes; Prodrug Cleavage rFAAH net d3-Cr release (yes/no) [10]: no"
–,74,24.8 nmol/mg protien,1.38,76,> 3,> 3,2.22,"[2H]C([2H])([2H])N(CC(=O)[O-])C(=N)NC(=O)CCCCCCC/C=C\CCCCCCCC.[Na+] [Compound 1, Sodium N-(methyl-d3)-N—(N-oleoylcarbamimidoyl)glycinate]",–
BQL,94,–,15.2,97,> 3,> 3,10.8,[2H]C([2H])([2H])N(CC(=O)[O-])C(=N)NC(=O)CCCCCC.[Na+] [Compound 13],"crossing of BBB (in words) ([2]; CrT KO mice, IV dosing): did not seem to cross BBB; AUClast d3-Cr in the brain ([2]; IV 10 mg/kg, CrT KO mouse brain, BQL d3-Cr = 13.7 ng/mL): BQL; AUClast d3-Crn in the brain ([2]; IV 10 mg/kg, CrT KO mouse brain, BQL d3-Crn = 1.5 ng/mL): BQL"

Structure (SMILES),"AUClast prodrug in the brain [2, 11]","Chemical Stability SGF, no enzyme % T0 at 2 hours at 37 °C. [3] [%]","prodrug, Cellular Uptake (ARPE-19 cells)",half-life at 10 μM [4] [h],Chemical Stability PBS % T0 at 2 hours at 37 °C. [5] [%],half-life [6] [h],half-life [7] [h],half-life at 10 μM [8] [h],further results
[2H]C([2H])([2H])N(CC(=O)OC(C)C)C(=N)NC(=O)CCCCCCCCCCCC [Compound 10],BQL,–,–,–,–,–,–,–,–

# — patent US11332438B2, “Creatine prodrugs, compositions and methods of use thereof” (Ultragenyx Pharmaceutical Inc., priority 2017, dated 2022)
